The source of these data is PubChem BioAssay AID248 (DTP/NCI, 2004).

For the assay, the system named is L1210 leukemia ip in BDF1 mice, survival T/C. Briefly: NCI In Vivo Anticancer Drug Screen. Data for tumor model L1210 Leukemia (intraperitoneal) in B6D2F1 (BDF1) mice. The note with it: endpoint: mean survival time, higher = longer survival. In short, it runs like this:
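In this screen, tumor-bearing mice given compound are compared to those given vehicle, and their survival values are reported as a treated-to-control quotient.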

[1] abbreviates: dose: 100.0 mg/kg/injection, schedule: Q01DX009 (ip), vehicle: Klucel (hydroxypropylcellulose) (HPC).
Where [2] appears, read: dose: 200.0 mg/kg/injection, schedule: Q01DX009 (ip), vehicle: Klucel (hydroxypropylcellulose) (HPC).
Setting [3] is: dose: 400.0 mg/kg/injection, schedule: Q01DX009 (ip), vehicle: Klucel (hydroxypropylcellulose) (HPC).

The structures appear in SMILES notation. “And” between values parts separate entries of the source, which are not always exact repeats. Identical values can stand only once. Inconclusive results and toxic doses are left out.

Regarding `O=C(O)CC(NC(=O)OCc1ccccc1)c1ccccc1` (stereo not drawn), the T/C is, setting by setting: (dose: 100.0 mg/kg/injection, schedule: Q01DX001 (ip), vehicle: saline with Tween-80) 92 % of control; (dose: 100.0 mg/kg/injection, schedule: Q01DX009 (ip), vehicle: saline with Tween-80) 93 % of control and 102 % of control; (dose: 100.0 mg/kg/injection, schedule: Q04DX002 (ip), vehicle: saline with Tween-80) 110 % of control; (dose: 100.0 mg/kg/injection, schedule: Q04DX003 (ip), vehicle: saline with Tween-80) 97 % of control; (dose: 200.0 mg/kg/injection, schedule: Q01DX001 (ip), vehicle: saline with Tween-80) 90 % of control; (dose: 200.0 mg/kg/injection, schedule: Q01DX009 (ip), vehicle: saline with Tween-80) 98 % of control and 91 % of control. Moreover, the T/C runs as follows: (dose: 200.0 mg/kg/injection, schedule: Q04DX002 (ip), vehicle: saline with Tween-80) 95 % of control; (dose: 200.0 mg/kg/injection, schedule: Q04DX003 (ip), vehicle: saline with Tween-80) 92 % of control; (dose: 400.0 mg/kg/injection, schedule: Q01DX001 (ip), vehicle: saline with Tween-80) 92 % of control; (dose: 400.0 mg/kg/injection, schedule: Q04DX002 (ip), vehicle: saline with Tween-80) 100 % of control; (dose: 400.0 mg/kg/injection, schedule: Q04DX003 (ip), vehicle: saline with Tween-80) 93 % of control.
With `Cc1c(O)ccc(=O)n1O`, the T/C by setting is: (dose: 10.4 mg/kg/injection, schedule: Q03HX024 (ip), vehicle: Klucel (hydroxypropylcellulose) (HPC)) 97 % of control; (dose: 12.0 mg/kg/injection, schedule: Q01DX009 (ip), vehicle: Klucel (hydroxypropylcellulose) (HPC)) 107 % of control; (dose: 15.6 mg/kg/injection, schedule: Q03HX024 (ip), vehicle: Klucel (hydroxypropylcellulose) (HPC)) 96 % of control; (dose: 22.8 mg/kg/injection, schedule: Q03HX024 (ip), vehicle: Klucel (hydroxypropylcellulose) (HPC)) 93 % of control; (dose: 24.0 mg/kg/injection, schedule: Q01DX009 (ip), vehicle: Klucel (hydroxypropylcellulose) (HPC)) 102 % of control; (dose: 34.8 mg/kg/injection, schedule: Q03HX024 (ip), vehicle: Klucel (hydroxypropylcellulose) (HPC)) 98 % of control. For the same compound, the T/C is 107 % of control (dose: 48.0 mg/kg/injection, schedule: Q01DX009 (ip), vehicle: Klucel (hydroxypropylcellulose) (HPC)); 109 % of control (dose: 49.0 mg/kg/injection, schedule: Q01DX Z (ip), vehicle: carboxymethylcellulose (CMC)); 100 % of control and 110 % of control (dose: 49.0 mg/kg/injection, schedule: Q01DX Z (ip), vehicle: methylcellulose (MC)); 103 % of control (dose: 52.0 mg/kg/injection, schedule: Q01DX009 (ip), vehicle: Klucel (hydroxypropylcellulose) (HPC)); 100 % of control and 105 % of control (dose: 52.0 mg/kg/injection, schedule: Q03HX024 (ip), vehicle: Klucel (hydroxypropylcellulose) (HPC)); 92 % of control (dose: 62.0 mg/kg/injection, schedule: Q03HX024 (ip), vehicle: saline with Tween-80). The T/C reads like this: (dose: 73.0 mg/kg/injection, schedule: Q01DX Z (ip), vehicle: carboxymethylcellulose (CMC)) 111 % of control; (dose: 73.0 mg/kg/injection, schedule: Q01DX Z (ip), vehicle: methylcellulose (MC)) 93 % of control; (dose: 89.0 mg/kg/injection, schedule: Q01DX001 (ip), vehicle: carboxymethylcellulose (CMC)) 106 % of control; (dose: 96.0 mg/kg/injection, schedule: Q03HX024 (ip), vehicle: Klucel (hydroxypropylcellulose) (HPC)) 100 % of control; (dose: 100.0 mg/kg/injection, schedule: Q01DX001 (ip), vehicle: carboxymethylcellulose (CMC)) 113 % of control; (dose: 100.0 mg/kg/injection, schedule: Q01DX001 (ip), vehicle: saline) 112 % of control. In addition, the T/C reads like this: under setting [1], 115 % of control; (dose: 100.0 mg/kg/injection, schedule: Q04DX003 (ip), vehicle: acetone) 108 % of control; (dose: 104.0 mg/kg/injection, schedule: Q01DX001 (ip), vehicle: Klucel (hydroxypropylcellulose) (HPC)) 103 % of control; (dose: 104.0 mg/kg/injection, schedule: Q04DX003 (ip), vehicle: Klucel (hydroxypropylcellulose) (HPC)) 95 % of control; (dose: 110.0 mg/kg/injection, schedule: Q01DX Z (ip), vehicle: carboxymethylcellulose (CMC)) 151 % of control; (dose: 110.0 mg/kg/injection, schedule: Q01DX Z (ip), vehicle: methylcellulose (MC)) 94 % of control. Also, the T/C runs as follows: (dose: 110.0 mg/kg/injection, schedule: Q01DX Z (ip), vehicle: saline) 102 % of control; (dose: 125.0 mg/kg/injection, schedule: Q03HX024 (ip), vehicle: saline with Tween-80) 102 % of control; (dose: 156.0 mg/kg/injection, schedule: Q01DX001 (ip), vehicle: Klucel (hydroxypropylcellulose) (HPC)) 97 % of control; (dose: 156.0 mg/kg/injection, schedule: Q04DX003 (ip), vehicle: Klucel (hydroxypropylcellulose) (HPC)) 103 % of control; (dose: 165.0 mg/kg/injection, schedule: Q01DX Z (ip), vehicle: carboxymethylcellulose (CMC)) 152 % of control; (dose: 165.0 mg/kg/injection, schedule: Q01DX Z (ip), vehicle: methylcellulose (MC)) 122 % of control. The T/C was 104 % of control (dose: 165.0 mg/kg/injection, schedule: Q01DX Z (ip), vehicle: saline); 112 % of control (dose: 200.0 mg/kg/injection, schedule: Q01DX001 (ip), vehicle: carboxymethylcellulose (CMC)); 107 % of control (dose: 200.0 mg/kg/injection, schedule: Q01DX001 (ip), vehicle: saline); 108 % of control under setting [2]; 107 % of control (dose: 200.0 mg/kg/injection, schedule: Q04DX003 (ip), vehicle: acetone); 101 % of control (dose: 228.0 mg/kg/injection, schedule: Q01DX001 (ip), vehicle: Klucel (hydroxypropylcellulose) (HPC)). For the same compound, the T/C is 98 % of control (dose: 228.0 mg/kg/injection, schedule: Q04DX003 (ip), vehicle: Klucel (hydroxypropylcellulose) (HPC)); 112 % of control (dose: 300.0 mg/kg/injection, schedule: Q01DX001 (ip), vehicle: carboxymethylcellulose (CMC)); 108 % of control (dose: 348.0 mg/kg/injection, schedule: Q01DX001 (ip), vehicle: Klucel (hydroxypropylcellulose) (HPC)); 104 % of control (dose: 348.0 mg/kg/injection, schedule: Q04DX003 (ip), vehicle: Klucel (hydroxypropylcellulose) (HPC)); 111 % of control (dose: 400.0 mg/kg/injection, schedule: Q01DX001 (ip), vehicle: carboxymethylcellulose (CMC)); 104 % of control (dose: 400.0 mg/kg/injection, schedule: Q01DX001 (ip), vehicle: saline). Moreover, the T/C runs as follows: under setting [3], 104 % of control; (dose: 400.0 mg/kg/injection, schedule: Q04DX003 (ip), vehicle: acetone) 103 % of control; (dose: 520.0 mg/kg/injection, schedule: Q01DX001 (ip), vehicle: Klucel (hydroxypropylcellulose) (HPC)) 106 % of control.
Take `COc1cccc2c1CCC1C2CCC2(O)CC(=O)CCC12C` (stereo not drawn): the T/C (dose: 100.0 mg/kg/injection, schedule: Q04DX003 (sc), vehicle: steriod suspending solution) is 115 % of control; the T/C (dose: 200.0 mg/kg/injection, schedule: Q04DX003 (sc), vehicle: steriod suspending solution) is 113 % of control; the T/C (dose: 400.0 mg/kg/injection, schedule: Q04DX003 (sc), vehicle: steriod suspending solution) is 113 % of control.
As to `COc1cc(/C=C/c2ccnc3ccccc23)cc(OC)c1OC`, the T/C is 96 % of control (dose: 5.0 mg/kg/injection, schedule: Q01DX001 (ip), vehicle: saline); 102 % of control (dose: 10.0 mg/kg/injection, schedule: Q01DX001 (ip), vehicle: saline); 102 % of control (dose: 20.0 mg/kg/injection, schedule: Q01DX001 (ip), vehicle: saline); 91 % of control (dose: 40.0 mg/kg/injection, schedule: Q01DX001 (ip), vehicle: saline).
For `O=C(COCC(=O)N/N=C/c1cccc([N+](=O)[O-])c1)N/N=C/c1cccc([N+](=O)[O-])c1`, the T/C under setting [1] was 92 % of control, the T/C under setting [2] is 95 % of control and the T/C under setting [3] is 106 % of control.
For the compound `Oc1ccc(CNCc2ccccc2)c2cccnc12`, the T/C (dose: 75.0 mg/kg/injection, schedule: Q01DX001 (ip), vehicle: saline) was 115 % of control.
For `Cc1ccc(NC(=O)Nc2cccc3ccccc23)cc1Cl`, the T/C is 99 % of control under setting [1]; 91 % of control (dose: 100.0 mg/kg/injection, schedule: Q04DX003 (ip), vehicle: Klucel (hydroxypropylcellulose) (HPC)); 94 % of control under setting [2]; 86 % of control (dose: 200.0 mg/kg/injection, schedule: Q04DX003 (ip), vehicle: Klucel (hydroxypropylcellulose) (HPC)); 97 % of control under setting [3]; 90 % of control (dose: 400.0 mg/kg/injection, schedule: Q04DX003 (ip), vehicle: Klucel (hydroxypropylcellulose) (HPC)).
